Ends that are not written are not given here.
Tests used:
[1] = Plasma stability of thymopentin by HPLC; format: in vitro ADME; settings: thymopentin 1.0 mM, equal amount of rat plasma, 37 °C, HPLC-UV 210 nm
Experimental: To test the above hypothesis, we compared the plasma stability of free thymopentin, a host–guest mixture of thymopentin/ExBP3C, thymopentin/CP5A, and thymopentin/cucurbit[7]uril (CB[7]) using high-performance liquid chromatography (HPLC). According to a previously reported method, the above samples (all containing 1.00 mM of thymopentin) were dissolved in deionized water and then incubated with an equal amount of rat plasma at 37 °C. At predetermined intervals, 100 μL of solution in various groups were withdrawn and quenched with 100 μL of acetonitrile containing 0.1% trifluoroacetic acid (TFA). HPLC analysis was performed on an LC-10AT VP Plus liquid chromatography system with an SPD-10 A VP Plus UV–Vis detector operating at 210 nm and quantified using Shimadzu LC solution Lite. The column used was a C18 reverse-phase column, and the mobile phase was composed of solvent A (water containing 0.1% TFA) and solvent B (70% acetonitrile and 0.1% TFA); the injection volume and flow rate were respectively set as 20 μL and 1.00 mL∙min^−1. The appropriate calibration curve was first derived to calculate the concentration of thymopentin based on the above-mentioned procedure (Figure 5a). […]
Figure 5 (a) Calibration curve obtained by HPLC and used to calculate thymopentin concentration in plasma stability. […] (2.0 mM) as determined by HPLC.

thymopentin = target: T1, thymopentin (Homo sapiens, UniProt P42166); experiment: Isothermal titration calorimetry (ITC) of thymopentin into ExBP3C; format: binding; settings: deionized water, 25 °C, ExBP3C 40 μM in cell, thymopentin 500 μM in syringe
T1 construct: purchased
Experimental: An isothermal microcalorimetric titration (ITC) experiment was further carried out in deionized water at 25 °C on a PEAQ-ITC to quantitatively assess the binding affinity and related thermodynamic parameters. A 300 μL solution of ExBP3C was placed in the sample cell at a concentration of 40 μM, and 70 μL of a solution of thymopentin (500 μM) was placed in the injection syringe. The titration was conducted by titration of 18 drops of thymopentin to the ExBP3C solution, and all solutions were degassed prior to titration. […] It should be noted that the binding stoichiometry between ExBP3C and thymopentin was determined to be 0.956 ± 0.011, which was very close to 1:1 and consistent with the above entire encapsulation mode (Figure 3). A larger interaction area of thymopentin/ExBP3C would facilitate the production of a stronger binding affinity.
Figure 3 ITC isotherm for the titration of thymopentin/ExBP3C in aqueous solution at room temperature (top: raw data; bottom: net reaction heat obtained from integration of calorimetric traces).

[2] = system: mouse fibroblast cell line (L929); experiment: Cytotoxicity, Cell Counting Kit-8; format: cell-based; settings: 24 h, 37 °C, 5% CO2, CCK-8, 450 nm; even at relatively high concentrations; mean ± SD, n = 5
Experimental: (§1) In practical biomedical applications, the safety profiles of supplementary materials are of great concern. Here we preliminarily investigated the cytotoxicity of ExBP3C on a mouse fibroblast cell line (L929) and its hemolytic activity toward rabbit red blood cells (rRBCs). ExBP3C was first dissolved in deionized water and diluted to the required concentrations. For cytotoxicity studies, ExBP3C samples were added to L929 cell-containing wells, which were incubated at 37 °C under 5% CO2 for 24 h, and then the Cell Counting Kit-8 reagent was added into each well to stain for 30 min. […] For the hemolysis assay, ExBP3C samples were added to an erythrocyte suspension at 37 °C for 24 h. After that, the suspension was centrifuged at 1000 rpm for 10 min, and 100 μL of supernatant was transferred to a 96-well plate for measurement by a plate reader. […] On the basis of experimental results and prior studies, we concluded that the administration of ExBP3C at the above examination range was relatively nontoxic on a cellular level.
(§2) Figure 6 (a) Relative viability of mouse fibroblast cell line (L929) after treatment with ExBP3C for 24 h at the indicated concentrations (mean ± SD, n = 5). (b) Hemolysis of ExBP3C toward rabbit red blood cells (rRBCs) after 24 h of incubation time, and the hemolytic rate of rRBCs incubated with 1% Triton X-100 was defined as 100% (mean ± SD, n = 3).

[3] = system: rabbit red blood cells (rRBCs); experiment: Hemolysis assay; format: cell-based; settings: 320 μM, 37 °C, 24 h; 1% Triton X-100 defined as 100%; mean ± SD, n = 3
Experimental: as §1, §2

Substance	Residual thymopentin after exposure to rat plasma, in words ([1]; 30 min)	Time until thymopentin became undetectable ([1]; alone or with macrocycle 2.0 mM) [min]	binding stoichiometry, N (sites) (thymopentin)	Cytotoxicity against L929 cells, in words [2]	Relative hemolysis [3] [%]
RKDVY [thymopentin]	undetectable	≤ 30			
extended biphen[3]arene carboxylate [ExBP3C]			0.956 ± 0.011	minimal cytotoxicity	1.92

— article PMC11767344, “Entire Encapsulation of Thymopentin by Extended Biphen[3]arene Carboxylate for Improving Plasma Stability” (Molecules, 2025)
